Consider 7 molecules from US8431578B2, “Organic compounds” (Novartis AG, priority 2008, dated 2013).

In general, IC50 refers to the midpoint of a concentration-inhibition curve. Higher therefore signals a need for much substance.

In data set [1] the target is T1, ALK5 T204D (kinase domain of human ALK5, amino acids 200-503) (Homo sapiens, UniProt P36897, T204D).
T1 construct: The kinase domain of human ALK5 (amino acids 200-503); made in house; host or cells: insect cells (baculovirus expression)
T1 sequence (P36897 200-503 T204D): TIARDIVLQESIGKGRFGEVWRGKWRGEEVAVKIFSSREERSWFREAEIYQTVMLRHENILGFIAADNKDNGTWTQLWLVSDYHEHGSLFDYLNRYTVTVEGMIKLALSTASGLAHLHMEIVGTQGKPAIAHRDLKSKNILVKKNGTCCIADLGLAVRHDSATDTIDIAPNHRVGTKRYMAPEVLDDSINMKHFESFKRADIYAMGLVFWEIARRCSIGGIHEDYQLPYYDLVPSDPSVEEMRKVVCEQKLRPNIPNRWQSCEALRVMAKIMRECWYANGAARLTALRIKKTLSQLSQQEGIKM
Put plainly: ALK5 kinase activity, [33P] phosphate incorporation into casein. The following applies: casein substrate, 1 μM unlabelled ATP. Format: biochemical. The procedure:
The kinase activity of ALK5 is assessed by measuring radiolabelled phosphate [33P] incorporation in to the generic substrate, casein. The kinase domain of human ALK5 (amino acids 200-503) is fused to an N-terminal histidine tag. The kinase activity of ALK5 is rendered constitutive via point mutation at amino acid 204 (threonine to aspartate modification, ALK5 T204D) and the kinase construct is engineered to be expressed from a baculovirus expression construct in insect cells. The purified, recombinantly-expressed histidine-tagged ALK5 T204D protein is dissolved at 5.4 mg/ml in 50 mM Tris-HCl pH 8.0, 150 mM NaCl, 5 mM DTT. ALK5 T204D is dissolved to 2.5 μg/ml in assay buffer (Assay buffer: 20 mM Tris-HCl pH 7.4, 10 mM MgCl2, 2 mM MnCl2) on the day of use.
Test compounds and reference compounds are dissolved in assay buffer without DTT containing 5% (v/v) DMSO. Stock solutions of test and reference compounds are diluted in assay buffer with DTT (1.25 mM) containing 4.5% (v/v) DMSO. 10 μl of test or reference compound are added to the appropriate wells of 96 well U-bottomed plate. Total enzyme activity is determined by measuring ALK5 T204D activity in the absence of ALK5 kinase inhibitor reference compounds. Non-specific binding (NSB) is determined by measuring the activity of ALK5 T204D in the presence of ALK5 kinase inhibitor reference compounds. 10 μl of dephosphorylated casein stock solution (dephosphorylated casein is dissolved in ddH2O at 20 mg/ml) is added per well (200 μg/well final assay concentration). 20 μl of ALK5 T204D (2.5 μg/ml solution) is added per well (50 ng/well final assay concentration). The plates are left to incubate at room temperature for 10 minutes.
10 μl of ATP mix is added to the well to initiate the reaction (0.66 nM [^33P]ATP/1 μM unlabelled ATP/well final assay concentration). The ATP mix is prepared as follows, unlabelled ATP (3 mM) is dissolved in ddH2O and pH adjusted to 7.4. The stock concentration of [^33P]ATP is 10 μCi/μl. The appropriate volume of [^33P]ATP is added to unlabelled ATP solution such that the final assay concentration per well is 0.1 μCi. Following addition of the ATP mix, the plates are incubated at room temperature for 50 minutes. The kinase reaction is terminated by the addition of 50 μL Stop Buffer (20 mM Tris-HCl pH 7.4, 10 mM EDTA).
75 μl/well from the reaction plate is transferred to a Multiscreen-IP plate (MultiScreen-IP plates are prepared by added 50 μL of 70% (v/v) ethanol per well and incubated for 5 minutes at room temperature. The ethanol is removed by aspiration via a MultiScreen HTS Vaccum Manifold unit (Millipore, Cat no: MSVMHT500). The plates are washed twice by adding 200 μl/well ddH2O). The MultiScreen-IP plate is incubated at room temperature for 30 minutes to allowing binding of casein to the plate. The MultiScreen-IP plates are washed three times by adding 200 μl/well 100 mM phosphoric acid solution and the gasket is carefully removed from the back of the MultiScreen-IP plate and the plate dried in the oven for 30 minutes. The MultiScreen-IP plate is backsealed, 50 μL of Microscint™20 is added, then the plates are topsealed and radiolabelled casein detected and quantified on a TopCount™ plate-reader using the ^33P scintillation protocol.

Data set [2] relates to dimethylnitrosamine induced liver fibrosis. The following applies: rat, cited from earlier work.
The test system of data set [3] is bleomycin-induced pulmonary fibrosis. The following applies: bleomycin-treated rats; cited from earlier work.
The mark [4] stands for this setting: dimethylnitrosamine induced liver fibrosis, given therapeutically.

For the molecule `Cc1cccc(-c2nc(OCc3ccccc3)cc(-c3cncc(-c4ccc(C(=O)N5CCN(C(C)C)CC5)cc4)c3)n2)n1` [Example 8, (4-{5-[6-Benzyloxy-2-(6-methyl-pyridin-2-yl)-pyrimidin-4-yl]-pyridin-3-yl}-phenyl)-(4-isopropyl-piperazin-1-yl)-methanone], the IC50 in data set [1] came out at 265 nM. Turning to `CC(C)N1CCN(C(=O)c2ccc(-c3cncc(-c4ccnc(-c5ccccn5)n4)c3)cc2)CC1` [Example 3, (4-Isopropyl-piperazin-1-yl)-{4-[5-(2-pyridin-2-yl-pyrimidin-4-yl)-pyridin-3-yl]-phenyl}-methanone], half-maximal inhibition in data set [1] (IC50) was put at 592 nM. Regarding `Cc1cccc(-c2nc(OCCc3c[nH]c4ccccc34)cc(-c3cccnc3)n2)n1` [Example 6, 3-{2-[2-(6-Methyl-pyridin-2-yl)-6-pyridin-3-yl-pyrimidin-4-yloxy]-ethyl}-1H-indole], in data set [1], the IC50 is 261 nM.

Take `CC(C)N1CCN(C(=O)c2ccc(-c3cncc(-c4cc(OCc5ccccc5)nc(-c5ccccn5)n4)c3)cc2)CC1` [Example 11, {4-[5-(6-Benzyloxy-2-pyridin-2-yl-pyrimidin-4-yl)-pyridin-3-yl]-phenyl}-(4-isopropyl-piperazin-1-yl)-methanone]: the 50% inhibitory concentration (IC50) in data set [1] was 24 nM.

`c1ccc(-c2cc(-c3cn[nH]c3-c3ccccn3)ccn2)cc1` [GW6604]: in data set [2] (setting [4]), the “inhibition of extracellular matrix deposition” value is 60% and the “prevention of the death rate” value was 40%. Moreover, the side effects entry in data set [2] (during the 3 weeks treatment) is recorded as “no obvious side effects”. In the case of `CC(C)N1CCN(C(=O)c2ccc(-c3cncc(-c4cc(Cl)nc(-c5ccccn5)n4)c3)cc2)CC1` [Example 1, {4-[5-(6-Chloro-2-pyridin-2-yl-pyrimidin-4-yl)-pyridin-3-yl]-phenyl}-(4-isopropyl-piperazin-1-yl)-methanone], 335 nM corresponded to half-maximal inhibition in data set [1] (IC50).

B1: Follistatin: an antagonist of activin signalling (protein, UniProt P19883 30-344, looked up)
Follistatin: GNCWLRQAKNGRCQVLYKTELSKEECCSTGRLSTSWTEEDVNDNTLFKWMIFNGGAPNCIPCKETCENVDCGPGKKCRMNKKNKPRCVCAPDCSNITWKGPVCGLDGKTYRNECALLKARCKEQPELEVQYQGRCKKTCRDVFCPGSSTCVVDQTNNAYCVTCNRICPEPASSEQYLCGNDGVTYSSACHLRKATCLLGRSIGLAYEGKCIKAKSCEDIQCTGGKKCLWDFKVGRGRCSLCDELCPDSKSDEPVCASDNATYASECAMKEAACSSGVLLEVKHSGSCNSISEDTEEEEEDEDQDYSFPISSILEW
B1: in data set [3], the “effect on lung fibrosis” value is listed as “attenuated lung fibrosis”.
